How the values were obtained:
Assay type in all cases: cell-based
MCF7 = experiment: NCI COMPARE panel (SRB growth inhibition), MCF7; settings: Homo sapiens; Breast Cancer, MCF7, 48 h
Experimental: (§1) The human tumor cell lines of the cancer screening panel are grown in RPMI 1640 medium containing 5% fetal bovine serum and 2 mM L-glutamine. For a typical screening experiment, cells are inoculated into 96 well microtiter plates in 100 µL at plating densities ranging from 5,000 to 40,000 cells/well depending on the doubling time of individual cell lines. After cell inoculation, the microtiter plates are incubated at 37° C., 5% CO2, 95% air and 100% relative humidity for 24 h prior to addition of experimental drugs.
(§2) After 24 h, two plates of each cell line are fixed in situ with TCA, to represent a measurement of the cell population for each cell line at the time of drug addition (Tz). Experimental drugs are solubilized in dimethyl sulfoxide at 400-fold the desired final maximum test concentration and stored frozen prior to use. […]
(§3) Following drug addition, the plates are incubated for an additional 48 h at 37° C., 5 % CO2, 95% air, and 100% relative humidity. […] Bound stain is subsequently solubilized with 10 mM trizma base, and the absorbance is read on an automated plate reader at a wavelength of 515 nm. […] Using the seven absorbance measurements [time zero, (Tz), control growth, (C), and test growth in the presence of drug at the five concentration levels (Ti)], the percentage growth is calculated at each of the drug concentrations levels. Percentage growth inhibition is calculated as: […]

BT-549 = experiment: NCI COMPARE panel (SRB growth inhibition), BT-549; settings: Homo sapiens; Breast Cancer, BT-549, 48 h
Experimental: as §1, §2, §3

U251 = experiment: NCI COMPARE panel (SRB growth inhibition), U251; settings: Homo sapiens, U-251; CNS Cancer, U251, 48 h
Experimental: as §1, §2, §3

HT29 = experiment: NCI COMPARE panel (SRB growth inhibition), HT29; settings: Homo sapiens, HT-29; Colon Cancer, HT29, 48 h
Experimental: as §1, §2, §3

SW-620 = experiment: NCI COMPARE panel (SRB growth inhibition), SW-620; settings: Homo sapiens; Colon Cancer, SW-620, 48 h
Experimental: as §1, §2, §3

MALME-3M = experiment: NCI COMPARE panel (SRB growth inhibition), MALME-3M; settings: Homo sapiens, Melanoma, 48 h
Experimental: as §1, §2, §3

M14 = experiment: NCI COMPARE panel (SRB growth inhibition), M14; settings: Homo sapiens; Melanoma, M14, 48 h
Experimental: as §1, §2, §3

SK-MEL-5 = experiment: NCI COMPARE panel (SRB growth inhibition), SK-MEL-5; settings: Homo sapiens; Melanoma, SK-MEL-5, 48 h
Experimental: as §1, §2, §3

A549/ATCC = experiment: NCI COMPARE panel (SRB growth inhibition), A549/ATCC; settings: Homo sapiens, Non-Small Cell Lung Cancer, 48 h
Experimental: as §1, §2, §3

EKVX = experiment: NCI COMPARE panel (SRB growth inhibition), EKVX; settings: Homo sapiens, Non-Small Cell Lung Cancer, 48 h
Experimental: as §1, §2, §3

NCI-H460 = experiment: NCI COMPARE panel (SRB growth inhibition), NCI-H460; settings: Homo sapiens; Non-Small Cell Lung Cancer, NCI-H460, 48 h
Experimental: as §1, §2, §3

OVCAR-5 = experiment: NCI COMPARE panel (SRB growth inhibition), OVCAR-5; settings: Homo sapiens; Ovarian Cancer, OVCAR-5, 48 h
Experimental: as §1, §2, §3

OVCAR-8 = experiment: NCI COMPARE panel (SRB growth inhibition), OVCAR-8; settings: Homo sapiens; Ovarian Cancer, OVCAR-8, 48 h
Experimental: as §1, §2, §3

A498 = experiment: NCI COMPARE panel (SRB growth inhibition), A498; settings: Homo sapiens; Renal Cancer, A498, 48 h
Experimental: as §1, §2, §3

SN12C = experiment: NCI COMPARE panel (SRB growth inhibition), SN12C; settings: Homo sapiens, Renal Cancer, 48 h
Experimental: as §1, §2, §3

TK-10 = experiment: NCI COMPARE panel (SRB growth inhibition), TK-10; settings: Homo sapiens; Renal Cancer, TK-10, 48 h
Experimental: as §1, §2, §3

Compound | GI50 (MCF7) [µM] | GI50 (BT-549) [µM] | GI50 (U251) [µM] | GI50 (HT29) [µM] | GI50 (SW-620) [µM] | GI50 (MALME-3M) [µM] | GI50 (M14) [µM] | GI50 (SK-MEL-5) [µM] | GI50 (A549/ATCC) [µM] | GI50 (EKVX) [µM] | GI50 (NCI-H460) [µM] | GI50 (OVCAR-5) [µM] | GI50 (OVCAR-8) [µM] | GI50 (A498) [µM] | GI50 (SN12C) [µM] | GI50 (TK-10) [µM]
CS(=O)(=O)Nc1cc(-c2ccc3ncnc(Nc4cccc(Cl)c4F)c3c2)cnc1Cl [Compound 6, N-[2-chloro-5-[4-(3-chloro-2-fluoro-anilino)quinazolin-6-yl]-3-pyridyl] methanesulfonamide] | ≤ 0.075 | 0.075 to 0.125 | > 0.25 | 0.125 to 0.25 | > 0.25 | ≤ 0.075 | 0.125 to 0.25 | 0.125 to 0.25 | 0.125 to 0.25 | 0.075 to 0.125 | > 0.25 | 0.125 to 0.25 | > 0.25 | ≤ 0.075 | 0.125 to 0.25 | ≤ 0.075
CS(=O)(=O)Nc1cc(-c2ccc3ncc(C#N)c(Nc4cccc(Cl)c4F)c3c2)cnc1Cl [Compound 10, N-[2-chloro-5-[4-(3-chloro-2-fluoro-anilino)-3-cyano-6-quinolyl]-3-pyridyl]methanesulfonamide] | ≤ 0.075 | ≤ 0.075 | ≤ 0.075 | > 0.25 | ≤ 0.075 | 0.075 to 0.125 | > 0.25 | ≤ 0.075 | > 0.25 | > 0.25 | > 0.25 | > 0.25 | > 0.25 | ≤ 0.075 | 0.075 to 0.125 | 0.075 to 0.125
